Assay [1] has as its target Bcl-2 (Homo sapiens, UniProt P10415). As to the kind of experiment: Bcl-2 binding affinity analysis (fluorescence polarization binding assay). The settings on record: read-out: BcI2 (Ki, Bcl-2 binding affinity).
For assay [2], the target named is Bcl-xL (Homo sapiens, UniProt Q07817). As to the kind of experiment: Bcl-xL binding affinity analysis (fluorescence polarization binding assay). To be noted: read-out: BcI-XI (Ki, Bcl-xL binding affinity).

Drawing on patent US8178690B2, “Compounds and methods for inhibiting the interaction of BCL proteins with binding partners” (Infinity Pharmaceuticals, Inc., priority 2006, dated 2012), this text covers Ki for 16 molecules.

Chain of Bcl-2 (P10415 whole entry): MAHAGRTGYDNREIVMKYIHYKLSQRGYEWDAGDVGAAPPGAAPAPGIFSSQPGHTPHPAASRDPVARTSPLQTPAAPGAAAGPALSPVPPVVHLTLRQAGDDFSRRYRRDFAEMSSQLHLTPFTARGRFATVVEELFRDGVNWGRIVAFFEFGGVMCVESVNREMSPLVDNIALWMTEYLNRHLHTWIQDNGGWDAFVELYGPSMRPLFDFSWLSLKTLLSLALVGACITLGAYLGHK
Chain of Bcl-xL (Q07817 whole entry): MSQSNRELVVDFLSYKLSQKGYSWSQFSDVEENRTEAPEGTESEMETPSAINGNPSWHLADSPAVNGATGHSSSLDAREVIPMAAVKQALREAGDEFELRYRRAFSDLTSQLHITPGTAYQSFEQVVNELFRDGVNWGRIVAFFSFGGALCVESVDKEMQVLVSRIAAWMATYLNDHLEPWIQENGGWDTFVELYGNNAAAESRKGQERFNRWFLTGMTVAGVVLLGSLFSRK

In the case of `COc1c(-c2cc(C(=O)N[C@@H](Cc3ccccc3)CN(C)C)cc(N(C)C)c2)ccc(Cl)c1CN1O[C@@H](CO)[C@@H]([C@H](C)O)[C@H]1C(=O)N[C@H]1C[C@H]2C[C@@H]([C@@H]1C)C2(C)C` [Compound 274], the results for the Ki in assay [1] and in assay [2] were below 0.001 µM and 1 to 5 µM, respectively.

In the case of `COc1c(CN2O[C@@H](CO)[C@@H]([C@H](C)O)[C@H]2C(=O)N[C@H]2C[C@H]3C[C@@H]([C@@H]2C)C3(C)C)cccc1-c1cc(C(=O)N[C@@H](Cc2ccccc2)CN(C)C)cc(N(C)CCO)c1` [Compound 285], the results for the Ki in assay [1] and in assay [2] were below 0.001 µM and below 1 µM, respectively.

`COc1c(CN2O[C@@H](CO)[C@@H]([C@H](C)O)[C@H]2C(=O)N[C@H]2C[C@H]3C[C@@H]([C@@H]2C)C3(C)C)cccc1-c1cc(C(=O)N[C@H](CN(C)C)[C@@H](NS(C)(=O)=O)c2ccccc2)cc(N(C)CCO)c1` [Compound 290]: the Ki in assay [1] is below 0.001 µM; in assay [2], below 1 µM.

For the molecule `COc1c(CN2O[C@@H](CO)[C@@H]([C@H](C)O)[C@H]2C(=O)N[C@H]2C[C@H]3CC([C@@H]2C)C3(C)C)cccc1-c1cc(C(=O)N[C@@H](Cc2ccccc2)CN(C)C)cc(N2CCC[C@@H]2CO)c1` [Compound 296], the Ki was below 0.001 µM in assay [1] and below 1 µM in assay [2].

In the case of `COc1c(CN2O[C@@H](CO)[C@@H]([C@H](C)O)[C@H]2C(=O)N[C@H]2C[C@H]3C[C@@H]([C@@H]2C)C3(C)C)cccc1-c1cc(C(C)=O)cc(C(=O)N[C@@H](Cc2ccccc2)CN(C)C)c1` [Compound 299], the values for the Ki in assay [1] and in assay [2] were below 0.001 µM and below 1 µM, respectively.

As to `COc1c(CN2O[C@@H](CN)[C@@H]([C@H](C)O)[C@H]2C(=O)N[C@H]2C[C@H]3C[C@@H]([C@@H]2C)C3(C)C)cccc1-c1cc(C(=O)N[C@@H](Cc2ccccc2)CN(C)C)cc(N(C)CCO)c1` [Compound 302], the values for the Ki in assay [1] and in assay [2] were below 0.001 µM and 1 to 5 µM, respectively.

Regarding `COc1c(CN2O[C@@H](CO)[C@@H]([C@H](C)O)[C@H]2C(=O)N[C@H]2C[C@H]3C[C@@H]([C@@H]2C)C3(C)C)cccc1-c1cc(C(=O)N[C@@H](Cc2ccccc2)CN(C)C)cc(N(C)CC(=O)O)c1` [Compound 306], the Ki in assay [1] was below 0.001 µM; in assay [2], below 1 µM.

`COc1c(CN2O[C@@H](CO)[C@@H]([C@H](C)O)[C@H]2C(=O)N[C@H]2C[C@H]3C[C@@H]([C@@H]2C)C3(C)C)cccc1-c1cc(C(=O)N[C@@H](Cc2ccccc2)CN(C)C)cc(N(C)CC(=O)N(C)C)c1` [Compound 308]: the Ki in assay [1] is below 0.001 µM; in assay [2] it was below 1 µM.

With `CNC(=O)CN(C)c1cc(C(=O)N[C@@H](Cc2ccccc2)CN(C)C)cc(-c2cccc(CN3O[C@@H](CO)[C@@H]([C@H](C)O)[C@H]3C(=O)N[C@H]3C[C@H]4C[C@@H]([C@@H]3C)C4(C)C)c2OC)c1` [Compound 309], the Ki in assay [1] is below 0.001 µM; in assay [2] it was below 1 µM.

Consider `COc1c(CN2O[C@@H](CO)[C@@H]([C@H](C)O)[C@H]2C(=O)N[C@H]2C[C@H]3C[C@@H]([C@@H]2C)C3(C)C)cccc1-c1cc(C(=O)N[C@@H](Cc2ccccc2)CN(C)C)cc(N(C)CC(N)=O)c1` [Compound 310], for which the values for the Ki in assay [1] and in assay [2] were below 0.001 µM and below 1 µM, respectively.

As for `COc1c(CN2O[C@@H](CO)[C@@H]([C@H](C)O)[C@H]2C(=O)N[C@H]2C[C@H]3C[C@@H]([C@@H]2C)C3(C)C)cccc1-c1cc(C(=O)N(C)[C@@H](Cc2ccccc2)CN(C)C)cc(N(C)C)c1` [Compound 311], the values for the Ki in assay [1] and in assay [2] were below 0.001 µM and below 1 µM, respectively.

Consider `CCN1CCC[C@@H]1CNC(=O)c1cc(-c2cccc(CN3O[C@@H](CO)[C@@H]([C@H](C)O)[C@H]3C(=O)N[C@H]3C[C@H]4C[C@@H]([C@@H]3C)C4(C)C)c2OC)cc(N(C)C)c1` [Compound 312], for which the Ki in assay [1] is below 0.001 µM; in assay [2], below 1 µM.

Turning to `COc1c(CN2O[C@@H](CO)[C@@H]([C@H](C)O)[C@H]2C(=O)N[C@H]2C[C@H]3C[C@@H]([C@@H]2C)C3(C)C)cccc1-c1cc(C(=O)N[C@H](Cc2ccccc2)CN2CCN(C)CC2)cc(N(C)C)c1` [Compound 313], the Ki in assay [1] is below 0.001 µM; in assay [2], below 1 µM.

On to `COc1c(CN2O[C@@H](CO)[C@@H]([C@H](C)O)[C@H]2C(=O)N[C@H]2C[C@H]3C[C@@H]([C@@H]2C)C3(C)C)cccc1-c1cc(C(=O)N[C@@H](CC(C)C)CN2CCN(C)CC2)cc(N(C)C)c1` [Compound 314], for which the Ki in assay [1] was below 0.001 µM; in assay [2], below 1 µM.

Regarding `COc1c(CN2O[C@@H](CO)[C@@H]([C@H](C)O)[C@H]2C(=O)N[C@H]2C[C@H]3C[C@@H]([C@@H]2C)C3(C)C)cccc1-c1cc(C(=O)N[C@@H](CC(C)C)CN2CCCC2)cc(N(C)C)c1` [Compound 320], the Ki in assay [1] was below 0.001 µM; in assay [2], below 1 µM.

Take `COc1c(CN2O[C@@H](CO)[C@@H]([C@H](C)O)[C@H]2C(=O)N[C@H]2C[C@H]3C[C@@H]([C@@H]2C)C3(C)C)cc(Cl)cc1-c1cc(C(=O)NCCc2ccccc2)cc(N(C)C)c1` [Compound 321]: the results for the Ki in assay [1] and in assay [2] were above 0.009 µM and 5 to 10 µM, respectively.
